Test results reported in patent US7129239B2, “Purine compounds and uses thereof” (Pfizer Inc., priority 2002, dated 2006).

System: CB-1 receptor
Test: CB-1 receptor binding assay ([3H]SR141716A displacement)
Conditions: rat or human protocol not specified
Experimental: The following assays were designed to detect compounds that inhibit the binding of [^3H] SR141716A (selective radiolabeled CB-1 ligand) and [^3H]
PelFreeze brains (available from Pel Freeze Biologicals, Rogers, Ark.) were cut up and placed in tissue preparation buffer (5 mM Tris HCl, pH=7.4 and 2 mM EDTA), polytroned at high speed and kept on ice for 15 minutes. The homogenate was then spun at 1,000×g for 5 minutes at 4° C. The supernatant was recovered and centrifuged at 100,000×G for 1 hour at 4° C. […] A protein assay was performed and 200 μl of tissue totaling 20 μg was added to the assay.
The test compounds were diluted in drug buffer (0.5% BSA, 10% DMSO and TME) and then 25 μl were added to a deep well polypropylene plate. [^3H] SR141716A was diluted in a ligand buffer (0.5% BSA plus TME) and 25 μl were added to the plate. A BCA protein assay was used to determine the appropriate tissue concentration and then 200 μl of rat brain tissue at the appropriate concentration was added to the plate. […] In the morning the filters were counted on a Wallac Betaplate™ counter (available from PerkinElmer Life Sciences™, Boston, Mass.). […]
The test compounds were diluted in drug buffer (0.5% BSA, 10% DMSO and TME) and then 25 μl were added to a deep well polypropylene plate. […] In the morning the filters were counted on a Wallac Betaplate™ counter (available from PerkinElmer Life Sciences™, Boston, Mass.).

| SMILES | binding activity |
| --- | --- |
| NC1(C(=O)[O-])CCN(c2ncnc3c2nc(-c2ccccc2Cl)n3-c2ccc(Cl)cc2)CC1.[K+] [Example 19A-2, 4-Amino-1-[9-(4-chlorophenyl)-8-(2-chlorophenyl)-9H-purin-6-yl]-piperidine-4-carboxylic Acid, Potassium Salt] | 1.2 nM |
| O=C([O-])C1(Nc2ncnc3c2nc(-c2ccccc2Cl)n3-c2ccc(Cl)cc2)CCCC1.[K+] [Example 19A-1, 1-[9-(4-chlorophenyl)-8-(2-chlorophenyl)-9H-purin-6-ylamino]-cyclopentanecarboxylic Acid, Potassium Salt] | 2.8 nM |
